Laboratory results as given in the NIST ThermoML archive (doi:10.1021/je400486p).

What was measured:
[1] = 101.3 kPa, Liquid; for viscosity: Concentric cylinders viscometry; for mass density: Vibrating tube method
[2] = refractive index (Na D-line) (dimensionless); settings: 101.33 kPa, Liquid, Standard Abbe refractometry
[3] = refractive index (Na D-line) (dimensionless); xn = mol fraction of the nth substance listed; settings: 101.3 kPa, Liquid, Standard Abbe refractometry, x1 = 1
[4] = xn = mol fraction of the nth substance listed; settings: 101.3 kPa, Liquid, x1 = 1; for viscosity: Concentric cylinders viscometry; for mass density: Vibrating tube method

COCCOCCOCCOCCOC [2,5,8,11,14-pentaoxapentadecane]
Settings | mass density, [1] [kg/m3] | refractive index, [2] | viscosity, [1] [mPa·s]
288.15 K | 1015.63 | 1.4345 | 4.341
293.15 K | 1011 | 1.43238 | 3.834
298.15 K | 1006.36 | 1.43027 | 3.38
303.15 K | 1001.73 | 1.42815 | 3.004
308.15 K | 997.104 | 1.42603 | 2.691
313.15 K | 992.481 | 1.42394 | 2.426
318.15 K | 987.859 | 1.42183 | 2.199
323.15 K | 983.234 | 1.41973 | 2.006

CN1CCCC1=O [N-methylpyrrolidone]
Settings | mass density, [1] [kg/m3] | refractive index, [2] | viscosity, [1] [mPa·s]
288.15 K | 1037.3 | 1.47166 | 1.99
293.15 K | 1032.84 | 1.46952 | 1.823
298.15 K | 1028.38 | 1.46736 | 1.679
303.15 K | 1023.92 | 1.4652 | 1.555
308.15 K | 1019.46 | 1.46306 | 1.444
313.15 K | 1015 | 1.46095 | 1.346
318.15 K | 1010.53 | 1.45891 | 1.259
323.15 K | 1006.06 | 1.4568 | 1.182

CCC(C)O (stereo not given) [butan-2-ol]
Settings | mass density, [1] [kg/m3] | refractive index, [2] | viscosity, [1] [mPa·s]
288.15 K | 810.654 | 1.39959 | 4.29
293.15 K | 806.62 | 1.39748 | 3.576
298.15 K | 802.502 | 1.39534 | 2.954
303.15 K | 798.302 | 1.39314 | 2.469
308.15 K | 794.003 | 1.39086 | 2.08
313.15 K | 789.609 | 1.38851 | 1.766
318.15 K | 785.109 | 1.38617 | 1.512
323.15 K | 780.499 | 1.38372 | 1.303

CCC(C)O (stereo not given) [butan-2-ol] + CN1CCCC1=O
Settings | mass density, [4] [kg/m3] | refractive index, [3] | viscosity, [4] [mPa·s]
288.15 K | 810.654 | 1.39959 | 4.29
293.15 K | 806.62 | 1.39748 | 3.576
298.15 K | 802.502 | 1.39534 | 2.954
303.15 K | 798.302 | 1.39314 | 2.469
308.15 K | 794.003 | 1.39086 | 2.08
313.15 K | 789.609 | 1.38851 | 1.766
318.15 K | 785.109 | 1.38617 | 1.512
323.15 K | 780.499 | 1.38372 | 1.303

CCC(C)O (stereo not given) [butan-2-ol] + COCCOCCOCCOCCOC
Settings | mass density, [4] [kg/m3] | refractive index, [3] | viscosity, [4] [mPa·s]
288.15 K | 810.654 | 1.39959 | 4.29
293.15 K | 806.62 | 1.39748 | 3.576
298.15 K | 802.502 | 1.39534 | 2.954
303.15 K | 798.302 | 1.39314 | 2.469
308.15 K | 794.003 | 1.39086 | 2.08
313.15 K | 789.609 | 1.38851 | 1.766
318.15 K | 785.109 | 1.38617 | 1.512
323.15 K | 780.499 | 1.38372 | 1.303
